Source: US8648176B2, “Engineered proteins with high affinity for DOTA chelates” (Massachusetts Institute of Technology, priority 2009, dated 2014)
Several values for one entry are separate records, joined by “and”; a condition that tells them apart may be missing. Equal values may be shown once. One block for each molecule: values may come before it.

Legend:
[1] = system: CEA-positive (LS174T) tumor; experiment: Three-step PRIT (bsAb, dextran-DOTA-Y clearing agent, radiolabeled DOTA) biodistribution in xenograft mice; type: in vivo; conditions: for tumor uptake/activity, antigen-positive LS174T tumor: PRIT protocol with bsAb and dextran-DOTA-Y
Description: (§1) Radiolabeling. DOTA compounds were dissolved at 0.5 mM in ammonium acetate pH 5.6. 1-2 mCi ^177LuCl3 (PerkinElmer, Waltham, Mass.) or ^111InCl3 (Cardinal Health, Dublin, Ohio) were added to the metal chelate and incubated for 1-2 h at 85-95 C. The radiolabeled compounds were purified by RP-HPLC (Humblet et al., Contrast Media Mol. Imaging. 1:196-211, 2006; Misra et al., J. Nucl. Med. 48:1379-1389, 2007) with gamma detection on a 4.6×75 mm Symmetry C18 column using a linear gradient from 0% to 40% B over 15 minutes, at a flow rate of 1 mL/min, where A=10 mM TEAA and B=methanol. The purified compounds were dried under vacuum, resuspended in saline, and filter-sterilized.
(§2) Animal models. All animal handling was performed in accordance with BIDMC IACUC guidelines. Male NCRU-nu/nu mice were purchased from Taconic Farms (Germantown, N.Y.). For biodistribution and tumor uptake, 100-150 μCi ^177Lu- or ^111In-labeled hapten was injected intravenously into the mice. Blood was collected from the tail vein using micro-capillary tubes and counted on a model 1470 Wallac Wizard™ (Perkin Elmer, Wellesley, Mass.) 10-detector gamma counter. Mice were euthanized by intraperitoneal injection of pentobarbital followed by cervical dislocation, a method consistent with the recommendations of the Panel on Euthanasia of the American Veterinary Medical Association. Organs and tumors were resected, washed in PCS three times, weighed, and counted as described above.
We next tested a protocol involving all three reagents to determine the efficacy of our engineered PRIT system. […] After an additional 1 h, 100-150 μCi ^177Lu-DOTA was injected intravenously. At 4 h post-injection of radiolabeled DOTA, tumor uptake was 7.44+/−0.41% ID/g in the antigen-positive tumor, 84-fold higher than the tumor uptake observed for ^177Lu-DOTA alone. Activity was also higher in non-tumor tissue due to binding of ^177Lu-DOTA to residual bsAb in the extravascular compartment. Tumor uptake in the antigen-negative tumor was 9.82+/−0.35% ID/g at 4 h, similar to the antigen-positive tumor due to nonspecific uptake from enhanced permeability and retention (EPR) of the bsAb. […] The LS174T tumor to blood ratio increased from 18+/−2 at 4 h to 380+/−90 at 24 h and was greater than 450 at 48 h. […] The LS174T tumor to kidney ratio increased from approximately 8 at 4 h to about 20 at 24 and 48 h. SPECT/CT images confirmed the quantitative biodistribution data with high PSECT signal in the CEA-positive tumors, lower signal in the CEA-negative tumor and no observable signal in non-tumor tissue.
The pretargeted protocol described above was used to analyze the effect of affinity on the tumor uptake of radiolabeled DOTA. […] The 24 h organ/tissue biodistribution was determined in tumor-bearing mice with each of the four radiolabeled DOTA compounds. […] The activity in the C6 antigen-negative tumor increased with affinity, presumably due to nonspecific uptake of bsAb. The activity in the non-tumor tissues is also higher for the higher affinity compounds due to the higher affinity binding to residual bsAb.

CEA-negative (C6) tumor = experiment: as above; type: in vivo; conditions: PRIT protocol
Description: as §1, §2
We next tested a protocol involving all three reagents to determine the efficacy of our engineered PRIT system. […] After an additional 1 h, 100-150 μCi ^177Lu-DOTA was injected intravenously. At 4 h post-injection of radiolabeled DOTA, tumor uptake was 7.44+/−0.41% ID/g in the antigen-positive tumor, 84-fold higher than the tumor uptake observed for ^177Lu-DOTA alone. […] SPECT/CT images confirmed the quantitative biodistribution data with high PSECT signal in the CEA-positive tumors, lower signal in the CEA-negative tumor and no observable signal in non-tumor tissue.

[2] = MIRD dosimetry estimate from PRIT mouse biodistribution; type: in vivo; conditions: 70 kg man
Description: Dosimetry. Radiation doses absorbed by normal tissues other than the red marrow were calculated according to the MIRD scheme. Percent injected activity in tumor, kidneys, liver, blood, and whole-body were calculated from activity measurements. The activity at time 0 was assumed to be 4% ID/g in the kidney and liver, 50% ID/g in the blood, 0% ID/g in the tumor and 100% in the whole-body. Isotope decay-adjusted activity was integrated over time, with a conservative assumption that the 48 h organ % ID remained constant thereafter. S values for ^90Y and ^177Lu were used to calculate dosimetry estimates in an adult male reference (Stabin and Siegel, Health Phys. 85:294-310, 2003). The red marrow dose was calculated as described (Wessels et al., J. Nucl. Med. 45:1725-1733, 2004) from blood activity measurements. […] Tumor doses were calculated from self-dose only using S-factors for a unit density sphere of size 500 g (the average LS174T tumor size scaled by 2000).
From the PRIT organ biodistribution data, the radiation dose to the kidney, liver, red marrow, and antigen-positive tumor was estimated for a 70 kg person for ^90Y and ^177Lu. […] The estimated doses to the kidney, liver, and red marrow were calculated from both the self-dose and cross-dose, wherein the whole-body activity was used to determine the cross-dose. The estimated dose to the tumor was determined from self-dose only. […]

[3] = Organ uptake of DOTA-based compounds in normal CD1 mice; type: in vivo; conditions: 4 h p.i., compared to radiolabeled DOTA-biotin and DOTA-Bn
DOTA-Bn-biotin-Y [4] = experiment: KD by titration of yeast surface-displayed scFv, flow cytometry; type: binding; conditions: hapten DOTA-Bn-Biotin, metal Y, 37° C., mean ± SD
Description: Briefly, yeast expressing an scFv clone on their surface were grown, washed with PBSA and incubated with various concentrations of DOTA-Bn-biotin-metal long enough to allow for at least a 95% approach to equilibrium. Generally, 5×10^5 induced cells were used for each concentration point. When antigen concentrations less than 10 pM were assayed, the titration was performed with 2.5×10^4 induced and 7.5×10^5 non-induced cells to ensure antigen excess over the scFv without requiring impractically large volumes. The addition of non-induced cells aids pelleting during centrifugation (Hackel et al., J. Mol. Biol. 381:1238-1252, 2008). When antigen concentrations greater than 100 nM were used, non-specific antigen binding to the yeast surface was taken into account. Yeast expressing an irrelevant scFv on their surface were treated in the same manner as the yeast displaying the scFv of interest, and mean total phycoeryhthrein fluorescence (MFUtot) due to non-specific binding was measured by flow cytometry and averaged over three replicates. This value was subtracted from the MFUtot for the yeast of interest, and the data was fit by least-squares regression.

DOTA-Bn-biotin-Y [5] = experiment: Dissociation kinetics, yeast surface-displayed scFv; type: binding
Description: Dissociation Kinetics. To determine the dissociation rate, koff, for DOTA-Bn-biotin complexes, cells were induced and washed as above, and 1×10^7 cells were incubated in 1 mL PBSA with 1 nM DOTA-Bn-biotin-metal for 1 h to reach saturation. Subsequently, the yeast were washed with 1 mL PBSA, resuspended in 1 mL PBSA with 1 μM (excess) non-biotinylated antigen as competitor and split into 100 μL aliquots. These aliquots were incubated at 37° C. for different lengths of time, then washed with cold PBSA and left on ice. All samples were simultaneously stained with streptavidin-phycoerythrein for 10-20 min and analyzed by flow cytometry. The data was fit to the following equation by least squares regression, varying MFUmin, MFUrange and koff: MFUtot=MFUmin+MFUrangee^−k^off^t For nonbiotinylated antigens, the procedure was identical except that initial saturation was with the nonbiotinylated antigen and DOTA-Bn-biotin-metal was used as competitor. The data followed the expression MFUtot=MFUmin+MFUrange(1−e^−k^off^t)

DOTA-Bn-Ga = experiment: KD by competition with DOTA-Bn-biotin-Y, yeast surface-displayed scFv; type: binding; conditions: hapten DOTA-Bn, metal Ga; mean ± SD
Description: (§3) KD Measurements for DOTA-metal and DOTA-Bn-metal. To determine the KD for scFv binding to nonbiotinylated haptens, the above protocol was modified to a competition-based assay as follows. […] Incubation, staining, and flow cytometry analysis was the same as that for biotinylated antigen. MFUtot as a function of the concentration of the nonbiotinylated antigen ([Ag]), a normalization constant (MFUrange), the minimal total mean fluorescence (MFUmin), the KD for DOTA-Bn-biotin-Y (KD, biot), DOTA-Bn-biotin-Y concentration ([Agbiot]), and the KD for the antigen of interest (KD) follows this modified equation:
(§4) [formula] The data was fit by least squares regression as before, varying MFUmin, MFUrange and KD.

DOTA-Bn-Gd = experiment: as above; type: binding; conditions: hapten DOTA-Bn, metal Gd; mean ± SD
Description: as §3, §4

DOTA-Bn-In = experiment: as above; type: binding; conditions: hapten DOTA-Bn, metal In; mean ± SD
Description: as §3, §4

DOTA-Bn-Lu = experiment: as above; type: binding; conditions: hapten DOTA-Bn, metal Lu; mean ± SD
Description: as §3, §4

DOTA-Bn-Y = experiment: as above; type: binding; conditions: hapten DOTA-Bn, metal Y; mean ± SD
Description: as §3, §4

DOTA-Ga = experiment: as above; type: binding; conditions: hapten DOTA, metal Ga; mean ± SD
Description: as §3, §4

DOTA-Gd = experiment: as above; type: binding; conditions: hapten DOTA, metal Gd; mean ± SD
Description: as §3, §4

DOTA-In = experiment: as above; type: binding; conditions: hapten DOTA, metal In; mean ± SD
Description: as §3, §4

DOTA-Lu = experiment: as above; type: binding; conditions: hapten DOTA, metal Lu; mean ± SD
Description: as §3, §4

DOTA-Y = experiment: as above; type: binding; conditions: hapten DOTA, metal Y; mean ± SD
Description: as §3, §4

Molecule: O=C([O-])CN1CCN(CC(=O)[O-])CCN(CC(=O)[O-])CCN(CC(=O)[O-])CC1.[111In+3] [^111In-DOTA]
- LS174T tumor to kidney ratio ([1]; 24 h, PRIT protocol): 1.2+/−0.4
- tumor uptake/activity, antigen-positive LS174T tumor ([1]; 24 h): 0.5+/−0.1 % ID/g

B1: 2D12.5ds: original 2D12.5 scFv with the addition of the intramolecular disulfide bond and removed glycosylation site (SEQ ID NO:2) (protein)
scFv: QVKLQESGPGLVQPSQSLSITCTVSGFSLTDYGVHWVRQSPGKGLEWLGVIWSGGGTAYTAAFISRLNIYKDNSKNQVFFEMNSLQAEDTAMYYCARRGSYPYNYFDVWGCGTTVTVSSGGGGSGGGGSGGGGSQAVVTQESALTTSPGETVTLTCRSSTGAVTTSNYANWVQEKPDHCFTGLIGGNNNRPPGVPARFSGSLIGDKAALTIAGTQTEDEAIYFCALWYSNHWVFGGGTRLTVLG
- Kd (DOTA-Bn-biotin-Y [4]): 3700 ± 3600 pM
- dissociation half-time (DOTA-Bn-biotin-Y [5]): 5.5 min

Further lines, with some results ahead:

- blood activity ([1]; 48 h, PRIT protocol): not measurable above background
- dose-limiting organ ([2]; predicted from radiation dose estimates): red marrow
- liver and intestine uptake [3]: slightly lower
Molecule: O=C([O-])CN1CCN(CC(=O)[O-])CCN(CC(=O)[O-])CCN(CC(=O)[O-])CC1.[177Lu+3].[H+] [^177Lu-DOTA]
- LS174T tumor to blood ratio ([1]; 4 h, PRIT protocol): 18+/−2
- LS174T tumor to kidney ratio ([1]; 4 h, PRIT protocol): approximately 8
- tumor uptake relative to hapten alone ([1]; 4 h, antigen-positive tumor, versus ^177Lu-DOTA alone): 84 fold
- tumor uptake, antigen-positive tumor ([1]; 4 h post-injection of radiolabeled DOTA, 500 μg bsAb, 250 μg dextran-DOTA-Y 24 h later, hapten 1 h later): 7.44+/−0.41 % ID/g
- tumor uptake/activity, antigen-positive LS174T tumor ([1]; 24 h): ~14 % ID/g and 14.3+/−1.8 % ID/g
- tumor uptake relative to hapten of ~1 nM affinity ([1]; 24 hours, affinity ~100 pM versus ~1 nM): 8 fold
- tumor uptake relative to hapten of ~10 nM affinity ([1]; 24 hours, affinity ~100 pM versus ~10 nM): 28 fold
- tumor uptake, antigen-negative tumor (CEA-negative (C6) tumor; 4 h): 9.82+/−0.35 % ID/g
- tumor activity, antigen-negative tumor (CEA-negative (C6) tumor; 24 h): 4.23+/−0.54 % ID/g
- tumor activity, antigen-negative tumor (CEA-negative (C6) tumor; 48 h): 2.89+/−2.28 % ID/g
- estimated dose to the tumor ([2]; at a red marrow dose of 1.5 Gy, estimated from mouse biodistribution, self-dose only): 156 Gy

- Kd (DOTA-Bn-biotin-Y [4]): 8.2 ± 1.9 pM
- Kd (DOTA-Bn-Ga): 52000 ± 12000 pM
- Kd (DOTA-Bn-Gd): 34 ± 5.3 pM
- Kd (DOTA-Bn-In): 1010 ± 40 pM
- Kd (DOTA-Bn-Lu): 10.8 ± 2.5 pM
- Kd (DOTA-Bn-Y): 15.4 ± 2 pM
- Kd (DOTA-Ga): 216000 ± 26000 pM
- Kd (DOTA-Gd): 149 ± 6 pM
- Kd (DOTA-In): 23700 ± 3700 pM
- Kd (DOTA-Lu): 390 ± 14 pM
- Kd (DOTA-Y): 103 ± 35 pM
B2: C8.2.5: high-affinity disulfide-stabilized DOTA-binding scFv affinity matured from 2D12.5; residues 1-244 are SEQ ID NO:12 (protein)
scFv: HVKLQESGPGLVQPSQSLSLTCTVSGFSLTDYGVHWVRQSPGKGLEWLGVIWSGGGTAYNTALISRLNIYRDNSKNQVFLEMNSLQAEDTAMYYCARRGSYPYNYFDAWGCGTTVTVSSGGGGSGGGGSGGGGSQAVVIQESALTTPPGETVTLTCGSSTGAVTASNYANWVQEKPDHCFTGLIGGHNNRPPGVPARFSGSLIGDKAALTIAGTQTEDEAIYFCALWYSDHWVIGGGTRLTVLGGSEQKLISEEDL
- dissociation half-time (DOTA-Bn-biotin-Y [5]): over 5 hours
